Measurements from article PMC2808703 (Bioorganic & medicinal chemistry, 2009).
pIC50: −log10 of the molar value. Read-outs that look alike come from different tables or passages of the source.

Tests used:
[1] = system: phospho-Akt in BxPC-3 pancreatic cancer cells; settings: hits experimentally tested and confirmed active; cited from earlier work
[2] = system: phospho-Akt in BxPC-3 pancreatic cancer cells; assay: Cell inhibition of phospho-Akt in BxPC-3 pancreatic cancer cells; format: cell-based; settings: for pIC50: Homo sapiens, BXPC-3, read-out: IC50 (Akt inhibition)
[3] = system: Caco-2; settings: curated dataset; cited from earlier work

Row | pIC50 [2] | SMILES | Caco-2 permeability, experimental [3] [×10⁻⁶ cm/s] | other results
1 | – | Cc1nnc(NS(=O)(=O)c2ccc(NS(=O)(=O)c3ccc4ccccc4c3)cc2)s1 [Compound 9] | – | pIC50 [1]: 4.70
2 | < 4.30 | CC(=O)Nc1ccc(S(=O)(=O)Nc2nncs2)cc1 [Compound 11] | – | IC50 (Akt inhibition) ([2]; BxPC-3 cells, phospho-Akt): no activity
3 | < 4.30 | COCCOCCOCC(=O)Nc1ccc(S(=O)(=O)Nc2nncs2)cc1 [Compound 12] | – | –
4 | 5.00 | CCCCCCCCCC(=O)Nc1ccc(S(=O)(=O)Nc2nncs2)cc1 [Compound 13] | – | –
5 | – | CO/N=C(\C(=O)N[C@@H]1C(=O)N2C(C(=O)O)=C(CSc3nc(=O)c(O)nn3C)CS[C@H]12)c1csc(N)n1 [cerftriaxone] | 0.13 | –
6 | – | COc1cccc2c1C(=O)c1c(O)c3c(c(O)c1C2=O)C[C@@](O)(C(=O)CO)C[C@@H]3O[C@H]1C[C@H](N)[C@H](O)[C@H](C)O1 [doxorubicin] | 0.16 | –
7 | – | CC(C)Cc1ccc(C(C)C(=O)O)cc1 (stereo not shown) [ibuprofen] | 52.5 | –
8 | – | CN1CCN(CC(=O)N2c3ccccc3C(=O)Nc3cccnc32)CC1 [pirenzepine] | 0.437 | –
9 | – | C[C@H]1[C@H](OC(=O)CCC(=O)O)O[C@@H]2O[C@@]3(C)CC[C@H]4[C@H](C)CC[C@@H]1[C@@]24OO3 [sodium artesunate] | 3.98 | –
